Structures are written as SMILES. Where a name gives a salt, the structure may show the parent alone.

The nature of the data set: Particle size distribution by laser diffraction (Sympatec Helos). In kind it is physicochemical. The note with it: for particle size: product of the prior process (background statement), method not stated at that place. The source says:
As used herein, “particle size distribution” means the cumulative volume size distribution of equivalent spherical diameters as determined by laser diffraction at 1 bar dispersive pressure in a Sympatec Helos equipment. “Median particle size”, correspondingly, means the median of said particle size distribution.
A wet filter cake obtained by precipitation of crude escitalopram oxalate by mixing of ethanolic solutions of escitalopram and oxalic acid, respectively, and containing approximately 35 kg escitalopram oxalate was suspended in 322 L ethanol. The material was dissolved by heating to reflux, and 150 L ethanol was removed by distillation. Cooling was applied, and the mixture was cooled from reflux to 15° C. with a cooling rate between 0.2 and 0.5° C./min in the temperature interval 80 to 40° C. During cooling, the mixture was seeded with escitalopram oxalate at 75, 65 and 60° C. (10 g each time). The crystallization mixture was kept at 15° C. for 10 hours before the crystalline escitalopram oxalate was isolated. Purified escitalopram oxalate (27.7 kg, […]) was obtained by filtration of the crystallization mixture, washing with ethanol and drying of the filter cake.

Regarding `CN(C)CCC[C@@]1(c2ccc(F)cc2)OCc2cc(C#N)ccc21.O=C(O)C(=O)O` [escitalopram oxalate, (S)-1-[3-(dimethylamino)propyl]-1-(4-fluorophenyl)-1,3-dihydro-5-isobenzofurancarbonitrile oxalate, reference compound], the particle size was 2-20 μm.

For the compound `CN(C)CCC[C@@]1(c2ccc(F)cc2)OCc2cc(C#N)ccc21.O=C(O)C(=O)O` [Example 1, (S)-1-[3-(dimethylamino)propyl]-1-(4-fluorophenyl)-1,3-dihydro-5-isobenzofurancarbonitrile oxalate], the “Particle size distribution, 10% quantile” value (Quantile 10%, cumulative volume size distribution, Sympatec Helos, 1 bar dispersive pressure) was determined as 13 μm. Moreover, the “Particle size distribution, 50% quantile (median particle size)” value (Quantile 50%, cumulative volume size distribution, Sympatec Helos, 1 bar dispersive pressure) was found to be 163 μm. For the same compound, the “Particle size distribution, 90% quantile” value (Quantile 90%, cumulative volume size distribution, Sympatec Helos, 1 bar dispersive pressure) is reported as 455 μm.

For the compound `CN(C)CCCC1(c2ccc(F)cc2)OCc2cc(C#N)ccc21` (centres unmarked) [citalopram hydrobromide, reference compound], the particle size is listed as 2-20 μm.

For the origin of these results see patent publication US7420069B2, “Crystalline composition containing escitalopram” (H. Lundbeck A/S, priority 2001, dated 2008).
